Reference: patent US8217176B2, “Fused heterocyclic derivative and use thereof” (Takeda Pharmaceutical Company Limited, priority 2008, dated 2012)
Where a name gives a salt, the structure may show the parent alone.

System: NIH-3T3/Gli reporter cells
Assay: Evaluation of compound: Shh-N-induced luciferase activity in NIH-3T3/Gli reporter cells (Smo inhibitory action)
Type: cell-based
Details: 48 hr; for inhibition at 1 µM: NIH3T3, 1 μM compound, mouse Shh-N end fragment supernatant, read-out: inhibition rate (%) at 1 μM; for IC50: NIH3T3, mouse Shh-N end fragment supernatant, read-out: IC50 value (compound concentration necessary for achieving 50% of the maximum value of inhibition rate)
Procedure: HEK293 cells were grown in D-MEM medium (Invitrogen) containing 10% fetal bovine serum in a 10 cm dish and pcDNA3.1/mShh-N was introduced into the cells using FuGENE6 (Roche Applied Science). Thereafter, the HEK293 cells were cultured in a carbon dioxide gas incubator at 37° C. for 24 hours, and the medium was exchanged with D-MEM medium (Invitrogen) containing 2% fetal bovine serum. After culturing for 48 hr, a culture supernatant containing recombinant type mouse Shh-N end fragment was obtained by filtration using a filter ([…]).
Using D-MEM (Invitrogen) containing 10% fetal bovine serum, expression plasmid pcDNA3.1 and Gli reporter plasmid (pGL3/δ-cry promoter, 8×Gli binding site) produced by the method of Experimental Example 1 were introduced into NIH-3T3 cells grown in a 10 cm dish by the use of FuGENE6 (Roche Applied Science).
After culture for 24 hr, the cells were recovered, suspended in D-MEM medium containing 10% fetal bovine serum and supplemented with Geneticin (Life Technologies Oriental, Inc.) to a final concentration of 500 μg/ml, diluted to 10^4 cells/ml, plated on a 96 well plate, and cultured in a carbon dioxide gas incubator at 37° C. to give Geneticin resistant transformed cell line.
The obtained transformed cell line was cultured in a 96 well plate, mouse Shh-N end fragment obtained in Experimental Example 3 was added, and NIH-3T3/Gli reporter cell, which is a cell line capable of induction of luciferase expression, was selected.
NIH-3T3/Gli reporter cells cultured in D-MEM (Invitrogen) containing 10% fetal bovine serum were plated in a 96 well white plate at 1×10^4 cells/well, and cultured overnight in a carbon dioxide gas incubator at 37° C. The medium was removed, a compound (50 μl) and culture supernatant of mouse Shh-N end fragment-expressing HEK293 (D-MEM medium containing 2% fetal bovine serum, 50 μl) were added, and the cells were cultured for 48 hr in a carbon dioxide gas incubator at 37° C. Bright-Glo (Promega, 50 μl) was added, and the mixture was stirred, after which luciferase activity was measured by EnVision (PerkinElmer). The inhibition rate was calculated based on the luciferase activity of the control without addition of the compound as 100. The concentration of the compound and the inhibition rate were analyzed by PRISM3.00 (software of GraphPad), based on which the IC50 value (compound concentration necessary for achieving 50% of the maximum value of inhibition rate) of the compound was calculated.

SMILES	inhibition at 1 µM [%]	IC50 [nM]
COc1c(C(=O)NC2CCN(C(=O)CO)CC2)n(C)c2c1c(=O)n(CC(=O)c1ccccc1)c1ccc(F)cc21 [Example 584, 8-fluoro-N-[1-(hydroxyacetyl)piperidin-4-yl]-3-methoxy-1-methyl-4-oxo-5-(2-oxo-2-phenylethyl)-4,5-dihydro-1H-pyrrolo[3,2-c]quinoline-2-carboxamide]	100	–
COc1c(C(=O)NC2CCN(C(=O)CO)CC2)sc2c1c(=O)n(CC(=O)c1ccccc1)c1ccc(F)cc21 [Example 562, 8-fluoro-N-[1-(hydroxyacetyl)piperidin-4-yl]-3-methoxy-4-oxo-5-(2-oxo-2-phenylethyl)-4,5-dihydrothieno[3,2-c]quinoline-2-carboxamide]	100	–
COc1c(C(=O)NCCN2CCCCC2)sc2c1c(=O)n(CC(=O)c1ccccc1)c1ccccc21 [Example 9, 3-methoxy-4-oxo-5-(2-oxo-2-phenylethyl)-N-(2-piperidin-1-ylethyl)-4,5-dihydrothieno[3,2-c]quinoline-2-carboxamide trifluoroacetate]	100	≤ 1000
COc1c(C(=O)NCCN2CCC(O)CC2)n(C)c2c1c(=O)n(CC(=O)c1ccccc1)c1ccccc21 [Example 69, N-[2-(4-hydroxypiperidin-1-yl)ethyl]-3-methoxy-1-methyl-4-oxo-5-(2-oxo-2-phenylethyl)-4,5-dihydro-1H-pyrrolo[3,2-c]quinoline-2-carboxamide]	100	≤ 1000
CCN(CC)CCN(C)C(=O)c1c(OC)c2c(=O)n(CC(=O)c3ccccc3)c3ccccc3c2n1C [Example 56, N-[2-(diethylamino)ethyl]-3-methoxy-N,1-dimethyl-4-oxo-5-(2-oxo-2-phenylethyl)-4,5-dihydro-1H-pyrrolo[3,2-c]quinoline-2-carboxamide hydrochloride]	100	≤ 1000
CCOc1c(C(=O)NC2CCN(CCO)CC2)n(C)c2cc(C)n(CC(=O)c3ccccc3)c(=O)c12 [Example 138, 3-ethoxy-N-[1-(2-hydroxyethyl)piperidin-4-yl]-1,6-dimethyl-4-oxo-5-(2-oxo-2-phenylethyl)-4,5-dihydro-1H-pyrrolo[3,2-c]pyridine-2-carboxamide]	100	–
CCOc1c(C(=O)N(C)CCN(CC)CC)sc2c1c(=O)n(CC(=O)c1ccccc1)c1ccccc21 [Example 45, N-[2-(diethylamino)ethyl]-3-ethoxy-N-methyl-4-oxo-5-(2-oxo-2-phenylethyl)-4,5-dihydrothieno[3,2-c]quinoline-2-carboxamide hydrochloride]	100	≤ 1000
COc1c(C(=O)NC2CCN(C(=O)CO)CC2)n(C)c2c1c(=O)n(CC(=O)c1ccccc1)c1ccncc21 [Example 644, N-[1-(hydroxyacetyl)piperidin-4-yl]-3-methoxy-1-methyl-4-oxo-5-(2-oxo-2-phenylethyl)-4,5-dihydro-1H-pyrrolo[3,2-c][1,6]naphthyridine-2-carboxamide]	100	–
COc1c(C(=O)NCC2CCCCN2)sc2c1c(=O)n(CC(=O)c1ccccc1)c1ccccc21 (centres unmarked) [Example 74, 3-methoxy-4-oxo-5-(2-oxo-2-phenylethyl)-N-(piperidin-2-ylmethyl)-4,5-dihydrothieno[3,2-c]quinoline-2-carboxamide hydrochloride]	100	≤ 1000
CCc1cc2c(c(OCC(F)(F)F)c(C(=O)NC3CCN(C(=O)CO)CC3)n2C)c(=O)n1CC(=O)c1cccc(Cl)c1 [Example 657, 5-[2-(3-chlorophenyl)-2-oxoethyl]-6-ethyl-N-[1-(hydroxyacetyl)piperidin-4-yl]-1-methyl-4-oxo-3-(2,2,2-trifluoroethoxy)-4,5-dihydro-1H-pyrrolo[3,2-c]pyridine-2-carboxamide]	100	–
COc1c(C(=O)NCCN2CCOCC2)n(C)c2c1c(=O)n(CC(=O)c1ccccc1)c1ccccc21 [Example 71, 3-methoxy-1-methyl-N-(2-morpholin-4-ylethyl)-4-oxo-5-(2-oxo-2-phenylethyl)-4,5-dihydro-1H-pyrrolo[3,2-c]quinoline-2-carboxamide]	100	≤ 1000
CCc1cc2c(c(OCC(F)(F)F)c(C(=O)NC3CCN(C(=O)CO)CC3)n2C)c(=O)n1Cc1ccccc1 [Example 654, 5-benzyl-6-ethyl-N-[1-(hydroxyacetyl)piperidin-4-yl]-1-methyl-4-oxo-3-(2,2,2-trifluoroethoxy)-4,5-dihydro-1H-pyrrolo[3,2-c]pyridine-2-carboxamide]	100	–
CCN(CC)CCN(C)C(=O)c1sc2c(c1OC)c(=O)n(CCOc1ccccc1)c1ccccc21 [Example 51, N-[2-(diethylamino)ethyl]-3-methoxy-N-methyl-4-oxo-5-(2-phenoxyethyl)-4,5-dihydrothieno[3,2-c]quinoline-2-carboxamide]	100	≤ 1000
COc1c(C(=O)NCCO)sc2c1c(=O)n(CC(=O)c1ccccc1)c1ccccc21 [Example 32, N-(2-hydroxyethyl)-3-methoxy-4-oxo-5-(2-oxo-2-phenylethyl)-4,5-dihydrothieno[3,2-c]quinoline-2-carboxamide]	95	≤ 1000
CCN(CC)CCN(C)C(=O)c1sc2c(c1OC)c(=O)n(Cc1ccc(OC)cc1)c1ccccc21 [Example 48, N-[2-(diethylamino)ethyl]-3-methoxy-5-(4-methoxybenzyl)-N-methyl-4-oxo-4,5-dihydrothieno[3,2-c] quinoline-2-carboxamide hydrochloride]	10	≤ 1000
CCCc1cc2c(c(OCC)c(C(=O)NC3CCN(C(=O)CO)CC3)n2C)c(=O)n1CC(=O)c1ccccc1 [Example 141, 3-ethoxy-N-[1-(hydroxyacetyl)piperidin-4-yl]-1-methyl-4-oxo-5-(2-oxo-2-phenylethyl)-6-propyl-4,5-dihydro-1H-pyrrolo[3,2-c]pyridine-2-carboxamide]	100	–
CCc1cc2c(c(OCC(F)(F)F)c(C(=O)NC3CCN(C(=O)CO)CC3)n2C)c(=O)n1Cc1ccccc1Cl [Example 660, 5-(2-chlorobenzyl)-6-ethyl-N-[1-(hydroxyacetyl)piperidin-4-yl]-1-methyl-4-oxo-3-(2,2,2-trifluoroethoxy)-4,5-dihydro-1H-pyrrolo[3,2-c]pyridine-2-carboxamide]	100	–
COc1c(C(=O)N(CCC#N)Cc2cccnc2)sc2c1c(=O)n(CC(=O)c1ccccc1)c1ccccc21 [Example 22, N-(2-cyanoethyl)-3-methoxy-4-oxo-5-(2-oxo-2-phenylethyl)-N-(pyridin-3-ylmethyl)-4,5-dihydrothieno[3,2-c]quinoline-2-carboxamide trifluoroacetate]	91	≤ 1000
COc1c(C(=O)NCC2CCCN(CCO)C2)n(C)c2c1c(=O)n(CC(=O)c1ccccc1)c1ccccc21 (centres unmarked) [Example 102, N-{[1-(2-hydroxyethyl)piperidin-3-yl]methyl}-3-methoxy-1-methyl-4-oxo-5-(2-oxo-2-phenylethyl)-4,5-dihydro-1H-pyrrolo[3,2-c]quinoline-2-carboxamide]	80	≤ 1000
CCN(CC)CCN(C)C(=O)c1sc2c(c1OC)c(=O)n(CC(=O)Nc1ccccc1)c1ccccc21 [Example 52, N-[2-(diethylamino)ethyl]-3-methoxy-N-methyl-4-oxo-5-[2-oxo-2-(phenylamino)ethyl]-4,5-dihydrothieno[3,2-c]quinoline-2-carboxamide hydrochloride]	95	≤ 1000
COc1c(C(=O)NC2CCN(c3ccncc3)CC2)n(C)c2cc(C)n(CC(=O)c3ccccc3)c(=O)c12 [Example 135, 3-methoxy-1,6-dimethyl-4-oxo-5-(2-oxo-2-phenylethyl)-N-(1-pyridin-4-ylpiperidin-4-yl)-4,5-dihydro-1H-pyrrolo[3,2-c]pyridine-2-carboxamide]	100	–
COc1c(C(=O)N(C)CC(=O)N2CCCC2)sc2c1c(=O)n(CC(=O)c1ccccc1)c1ccccc21 [Example 27, 3-methoxy-N-methyl-4-oxo-5-(2-oxo-2-phenylethyl)-N-(2-oxo-2-pyrrolidin-1-ylethyl)-4,5-dihydrothieno[3,2-c]quinoline-2-carboxamide]	100	≤ 1000
